Key:
Fibronectin (FN) = test: EMT on target screen, FN read-out; format: cell-based, human; conditions: for OT FN Screen Z-score 2: as E11, duplicate 2; for Both (shRNA is a hit again in both OT assays, Yes/No): on target validation, Table 16; for OT FN Screen Z-score 1: robust Z-score, HBEC donor Br299, duplicate 1, cut-off Z ≦ −1.25
MMP10 = test: EMT on target screen, MMP10 read-out; format: cell-based, human; conditions: for OT MMP10 Screen Z-score 2: as E13, duplicate 2; for OT MMP10 Screen Z-score 1: robust Z-score, HBEC donor Br299, duplicate 1, cut-off Z ≦ −1.25

65 (GGCCATGATTGAGAAACTC; chemistry not given here) [compound 65]
OT FN Screen Z-score 2 (Fibronectin (FN)): -4.03
Both (shRNA is a hit again in both OT assays, Yes/No) (Fibronectin (FN)): no
OT FN Screen Z-score 1 (Fibronectin (FN)): -4.35
OT MMP10 Screen Z-score 2 (MMP10): -3.44
OT MMP10 Screen Z-score 1 (MMP10): -5.08
OT CTB assay Z-score 1 (HBEC): 1.09
OT CTB assay Z-score 2 (HBEC): 1.89

68 (CATCAGCTTCCTGCTGGGC; chemistry not given here) [compound 68]
OT FN Screen Z-score 2 (Fibronectin (FN)): -5.66
Both (shRNA is a hit again in both OT assays, Yes/No) (Fibronectin (FN)): yes
OT FN Screen Z-score 1 (Fibronectin (FN)): -4.29
OT MMP10 Screen Z-score 2 (MMP10): -0.35
OT MMP10 Screen Z-score 1 (MMP10): -1.18
OT CTB assay Z-score 1 (HBEC): -2.64
OT CTB assay Z-score 2 (HBEC): -2.21

57 (CCAAACCTGTGTCAACTTC; chemistry not given here) [compound 57]
OT FN Screen Z-score 2 (Fibronectin (FN)): -3.69
Both (shRNA is a hit again in both OT assays, Yes/No) (Fibronectin (FN)): no
OT FN Screen Z-score 1 (Fibronectin (FN)): -8.59
OT MMP10 Screen Z-score 2 (MMP10): -1.94
OT MMP10 Screen Z-score 1 (MMP10): -0.60
OT CTB assay Z-score 1 (HBEC): -1.43
OT CTB assay Z-score 2 (HBEC): 0.38

73 (GAAACCATCCTTTCTTGAA; chemistry not given here) [compound 73]
OT FN Screen Z-score 2 (Fibronectin (FN)): -2.91
Both (shRNA is a hit again in both OT assays, Yes/No) (Fibronectin (FN)): no
OT FN Screen Z-score 1 (Fibronectin (FN)): -2.09
OT MMP10 Screen Z-score 2 (MMP10): 0.06
OT MMP10 Screen Z-score 1 (MMP10): -0.19
OT CTB assay Z-score 1 (HBEC): -1.31
OT CTB assay Z-score 2 (HBEC): -2.09

74 (AGACCTGGTCTACATCGAC; chemistry not given here) [compound 74]
OT FN Screen Z-score 2 (Fibronectin (FN)): -4.17
Both (shRNA is a hit again in both OT assays, Yes/No) (Fibronectin (FN)): no
OT FN Screen Z-score 1 (Fibronectin (FN)): -2.80
OT MMP10 Screen Z-score 2 (MMP10): -2.12
OT MMP10 Screen Z-score 1 (MMP10): -2.88
OT CTB assay Z-score 1 (HBEC): -8.40
OT CTB assay Z-score 2 (HBEC): -6.74

48 (GGATGGAGTTGGGAATCAC; chemistry not given here) [compound 48]
OT FN Screen Z-score 2 (Fibronectin (FN)): -3.44
Both (shRNA is a hit again in both OT assays, Yes/No) (Fibronectin (FN)): yes
OT FN Screen Z-score 1 (Fibronectin (FN)): -3.28
OT MMP10 Screen Z-score 2 (MMP10): -2.43
OT MMP10 Screen Z-score 1 (MMP10): -2.26
OT CTB assay Z-score 1 (HBEC): -1.14
OT CTB assay Z-score 2 (HBEC): -3.01

61 (CAATTCCCAAGGACAGGCT; chemistry not given here) [compound 61]
OT FN Screen Z-score 2 (Fibronectin (FN)): -1.44
Both (shRNA is a hit again in both OT assays, Yes/No) (Fibronectin (FN)): no
OT FN Screen Z-score 1 (Fibronectin (FN)): -1.65
OT MMP10 Screen Z-score 2 (MMP10): -2.31
OT MMP10 Screen Z-score 1 (MMP10): -2.21
OT CTB assay Z-score 1 (HBEC): 0.59
OT CTB assay Z-score 2 (HBEC): 0.86

50 (GAGGCAGCCTTGTACTCTT; chemistry not given here) [compound 50]
OT FN Screen Z-score 2 (Fibronectin (FN)): -4.42
Both (shRNA is a hit again in both OT assays, Yes/No) (Fibronectin (FN)): no
OT FN Screen Z-score 1 (Fibronectin (FN)): -2.42
OT MMP10 Screen Z-score 2 (MMP10): -0.49
OT MMP10 Screen Z-score 1 (MMP10): 1.32
OT CTB assay Z-score 1 (HBEC): -0.51
OT CTB assay Z-score 2 (HBEC): 2.33

58 (GATCCCAGCAGTTATAACA; chemistry not given here) [compound 58]
OT FN Screen Z-score 2 (Fibronectin (FN)): -6.55
Both (shRNA is a hit again in both OT assays, Yes/No) (Fibronectin (FN)): no
OT FN Screen Z-score 1 (Fibronectin (FN)): -2.47
OT MMP10 Screen Z-score 2 (MMP10): -3.41
OT MMP10 Screen Z-score 1 (MMP10): -3.06
OT CTB assay Z-score 1 (HBEC): -4.03
OT CTB assay Z-score 2 (HBEC): -2.02

53 (TCAGCTGGGCGCTATGTTC; chemistry not given here) [compound 53]
OT FN Screen Z-score 2 (Fibronectin (FN)): -2.98
Both (shRNA is a hit again in both OT assays, Yes/No) (Fibronectin (FN)): no
OT FN Screen Z-score 1 (Fibronectin (FN)): -3.01
OT MMP10 Screen Z-score 2 (MMP10): 0.45
OT MMP10 Screen Z-score 1 (MMP10): -0.41
OT CTB assay Z-score 1 (HBEC): -3.97
OT CTB assay Z-score 2 (HBEC): -4.28

70 (GAGTTTGCCTACTCAGAGG; chemistry not given here) [compound 70]
OT FN Screen Z-score 2 (Fibronectin (FN)): -4.05
Both (shRNA is a hit again in both OT assays, Yes/No) (Fibronectin (FN)): no
OT FN Screen Z-score 1 (Fibronectin (FN)): -4.52
OT MMP10 Screen Z-score 2 (MMP10): -1.35
OT MMP10 Screen Z-score 1 (MMP10): -4.35
OT CTB assay Z-score 1 (HBEC): 0.19
OT CTB assay Z-score 2 (HBEC): 1.51

59 (TGAAGGTCAAGAAGCCGGC; chemistry not given here) [compound 59]
OT FN Screen Z-score 2 (Fibronectin (FN)): -8.92
Both (shRNA is a hit again in both OT assays, Yes/No) (Fibronectin (FN)): yes
OT FN Screen Z-score 1 (Fibronectin (FN)): -6.20
OT MMP10 Screen Z-score 2 (MMP10): -1.19
OT MMP10 Screen Z-score 1 (MMP10): -1.71
OT CTB assay Z-score 1 (HBEC): -6.59
OT CTB assay Z-score 2 (HBEC): -4.59

60 (AACCTGGCCATTCAGACCC; chemistry not given here) [compound 60]
OT FN Screen Z-score 2 (Fibronectin (FN)): -2.96
Both (shRNA is a hit again in both OT assays, Yes/No) (Fibronectin (FN)): yes
OT FN Screen Z-score 1 (Fibronectin (FN)): -2.56
OT MMP10 Screen Z-score 2 (MMP10): -0.06
OT MMP10 Screen Z-score 1 (MMP10): -1.88
OT CTB assay Z-score 1 (HBEC): -7.10
OT CTB assay Z-score 2 (HBEC): -2.00
